{"source": "patent EP4512398A1", "about": "“FLURALANER FOR USE IN METHODS OF TREATMENT AND PREVENTION OF SEA LICE INFESTATION IN FISH” (Bimeda Animal Health Limited, priority 2023, dated 2025)", "key": {"[1]": {"system": "L. salmonis", "experiment": "proof-of-concept efficacy experiment: fluralaner in feed to sea-lice-infected farmed Atlantic salmon, lice counts", "type": "in vivo", "details": "for Average lice per fish / Total lice: 15 salmon sampled", "experimental": "(§1) A proof-of-concept experiment was carried out to determine the efficacy of fluralaner as a treatment for L. salmonis in farmed Atlantic salmon. Salmon infected with sea lice were divided evenly into three tanks, 41 fish per tank. Tank A acted as a control and no fluralaner was administered to the salmon, Tank B was given a low dog dose (25 mg/ kg of body weight) treatment and Tank C was given a high dog dose treatment (56 mg/ kg body weight). (See bravecto-epar-product-information attached for dosing rates). The powdered form of the drug was administered by mixing with standard aquaculture salmonid feed using fish oil as a binder. The experiment lasted for one week, between the 4/08/23 and the 11/08/23."}, "[2]": {"system": "Atlantic salmon", "experiment": "mortality, adverse effects and behaviour of treated salmon in the proof-of-concept trial", "type": "in vivo", "experimental": "as §1\nSamples have been retained for histology and residue testing."}, "[3]": {"details": "Tank B, 25 mg/ kg of body weight oral in feed, 04/08/2023 (start of experiment, baseline)"}, "[4]": {"details": "Tank C, 56 mg/ kg body weight oral in feed, 04/08/2023 (start of experiment, baseline)"}}}
{"smiles": "Cc1cc(C2=NOC(c3cc(Cl)cc(Cl)c3)(C(F)(F)F)C2)ccc1C(=O)NCC(=O)NCC(F)(F)F", "note": "(stereo not shown) [fluralaner, Fluralaner]", "values": [{"measurement": "Average lice per fish", "setting": "[1]; [3]", "result": 25.8}, {"measurement": "Total lice", "setting": "[1]; [3]", "result": 387}, {"measurement": "Average lice per fish", "setting": "[1]; Tank B, 25 mg/ kg of body weight oral in feed, 11/08/2023 (after one week), control Tank A 21.9", "result": 0.1}, {"measurement": "Total lice", "setting": "[1]; Tank B, 25 mg/ kg of body weight oral in feed, 11/08/2023 (after one week), control Tank A 329", "result": 1}, {"measurement": "Average lice per fish", "setting": "[1]; [4]", "result": 23.3}, {"measurement": "Total lice", "setting": "[1]; [4]", "result": 350}, {"measurement": "Average lice per fish", "setting": "[1]; Tank C, 56 mg/ kg body weight oral in feed, 11/08/2023 (after one week), control Tank A 21.9", "result": 0}, {"measurement": "Total lice", "setting": "[1]; Tank C, 56 mg/ kg body weight oral in feed, 11/08/2023 (after one week), control Tank A 329", "result": 0}, {"measurement": "total lice numbers on the salmon that received the treatment", "setting": "[1]; after one week, control tank remained high", "result": "significantly reduced"}, {"measurement": "efficacy in treating L. salmonis in Atlantic salmon", "setting": "[1]; preliminary study, oral in feed, 25 and 56 mg/kg", "result": "highly effective"}, {"measurement": "mortalities", "setting": "[2]; during the trial period or since its discontinuation", "result": "no mortalities"}, {"measurement": "adverse effects on the salmon", "setting": "[2]; trial period", "result": "no obvious adverse effects"}, {"measurement": "behaviour of the salmon", "setting": "[2]; trial period", "result": "normal"}]}
